Among the data in PMC5989697 (ACS Catalysis, 2018) are Km values, retold here.

The structures appear in SMILES notation.

This assay concerns the target T1, eugenol oxidase (EUGO) (Rhodococcus jostii, UniProt Q0SBK1).
T1 sequence (Q0SBK1 1-526): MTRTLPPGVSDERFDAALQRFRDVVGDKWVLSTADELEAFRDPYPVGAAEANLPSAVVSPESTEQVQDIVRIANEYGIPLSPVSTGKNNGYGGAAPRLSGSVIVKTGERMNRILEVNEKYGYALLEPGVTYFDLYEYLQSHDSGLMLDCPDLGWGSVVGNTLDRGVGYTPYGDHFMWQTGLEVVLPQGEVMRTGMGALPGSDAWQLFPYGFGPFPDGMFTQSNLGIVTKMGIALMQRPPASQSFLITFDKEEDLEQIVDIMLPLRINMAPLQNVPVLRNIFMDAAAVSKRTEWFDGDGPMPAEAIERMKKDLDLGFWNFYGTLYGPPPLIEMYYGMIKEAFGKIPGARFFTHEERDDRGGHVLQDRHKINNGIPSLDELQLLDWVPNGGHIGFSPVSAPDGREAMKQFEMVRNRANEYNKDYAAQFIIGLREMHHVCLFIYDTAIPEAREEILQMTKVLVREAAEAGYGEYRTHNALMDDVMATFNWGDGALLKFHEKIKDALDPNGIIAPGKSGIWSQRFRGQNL
Kind of assay: steady-state kinetics. In kind it is biochemical.

Usually Km stands for the concentration of substrate that gives half-maximal velocity. Regarding `C=CCc1cc(OC)c(O)c(OC)c1` [compound 1, 2,6-dimethoxy-4-allylphenol], the Km worked out at 0.77 µM.
